Results as given in article PMC10376059, “New NADPH Oxidase 2 Inhibitors Display Potent Activity against Oxidative Stress by Targeting p22^phox-p47^phox Interactions” (Antioxidants, 2023).

Columns and labels:
HL-60 cells = test: MTT cytotoxicity assay; format: cell-based, human; settings: 72 h; for cytotoxicity (in words): 0.01 µM to 100 µM, MTT
Description: To verify the cytotoxicity of the acrylonitrile derivatives, the MTT reduction method was performed. Briefly, HL-60 cells were seeded in a flat-bottomed 96-well plate at a density of 10,000 cells per well. […] In a second series of experiments, cells were incubated under the same conditions but for 72 h. Etoposide was used as a positive control. Ten μL of MTT was added at a final concentration of 0.5 mg/mL, incubated at 37 °C for 4 h, and then solubilized with 10% SDS in 0.1 mM HCl and incubated overnight at 37 °C. Finally, a blue-colored compound (formazan) formation was measured at 570 nm in a multiplate reader (StatFax 4200, Awareness Technology, Inc., Palm City, FL, USA). The viability percentage was obtained as follows: Viability % = [treated cells DO × 100]/[DO cells control].

NADPH oxidase (NOX2) = target: T1, NADPH oxidase (NOX2) (Homo sapiens, UniProt P14598); test: NOX2 activity by cytochrome C reduction in HL-60 membrane preparations; format: biochemical; settings: HL-60 membrane homogenates, increasing concentrations
T1 construct: HL-60 cells expressed the components of NOX2, including gp91, p22^phox, p47^phox, and p67^phox; endogenous in cells; whole cells in A1, membrane preparations in A3 and A4
T1 sequence (P14598 1-390): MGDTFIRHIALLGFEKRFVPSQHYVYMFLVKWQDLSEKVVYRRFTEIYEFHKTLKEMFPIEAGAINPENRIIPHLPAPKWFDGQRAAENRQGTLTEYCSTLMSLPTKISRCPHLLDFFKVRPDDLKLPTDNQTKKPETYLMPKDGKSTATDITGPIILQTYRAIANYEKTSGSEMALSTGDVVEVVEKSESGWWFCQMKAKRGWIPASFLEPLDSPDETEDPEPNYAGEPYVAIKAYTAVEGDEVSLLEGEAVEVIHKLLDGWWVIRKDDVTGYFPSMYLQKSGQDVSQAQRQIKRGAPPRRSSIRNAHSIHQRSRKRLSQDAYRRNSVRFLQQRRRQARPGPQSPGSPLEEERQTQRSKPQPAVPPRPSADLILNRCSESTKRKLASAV
Description: Neutrophil-differentiated HL-60 cells (2 × 10^6 cells/mL) […], then PMA 0.8 μM was added and incubated for 1 h to induce the activation of the enzyme NADPH oxidase. As a positive inhibition control, VAS2870 (20 μM) was used. Another two controls were performed: one with cells activated by PMA in the presence of DMSO, and the other (NA, non-activated) with cells in the absence of PMA and the acrylonitrile compounds. In 15 mL conical tubes, 5 mL of cell suspension from each treatment and control condition was transferred at 2 × 10^6 cells/mL and centrifuged at 1000 rpm at 4 °C for 10 min. […]
The membrane preparations from the neutrophil-differentiated HL-60 cells, treated with the different indole heteroaryl-acrylonitrile derivatives, were re-suspended in PBS with 10 μL/mL of the protease inhibitor cocktail (in mM): 104 (4-(2-aminoethyl)benzenesulfonylfluoride hydrochloride); 1.4 N-(trans-epoxysuccinyl)-L-leucine-4-guanidinobutyric; 2 leupeptin hemisulfate; 4 bestatin hydrochloride; 1.5 pepstatin A; and 80 μM aprotinin. Total proteins were quantified by the bicinchoninic acid (BCA) method using the commercial kit BCA™ (Thermo Scientific Pierce™, Rockford, IL, USA), using BSA as a standard. […] The reaction was monitored at 550 nm for 30 min at 25 °C using PBS as a blank.

N#C/C(=C\c1ccncc1)C(=O)c1c[nH]c2ccccc12 [Compound C14]
cytotoxicity (in words) (HL-60 cells): non-cytotoxic | superoxide production, cytochrome C reduction (in words) (NADPH oxidase (NOX2)): reduced superoxide production in a concentration-dependent manner

N#C/C(=C\c1cc(-c2ccccc2)on1)C(=O)c1c[nH]c2ccccc12 [Compound C6]
cytotoxicity (in words) (HL-60 cells): non-cytotoxic | cytotoxicity (HL-60 cells; 1 µM (corresponding to the IC50 value)): about 55% | superoxide production, cytochrome C reduction (in words) (NADPH oxidase (NOX2)): reduced superoxide production in a concentration-dependent manner
